Reference: PubChem BioAssay AID1259407 (Chemical Carcinogenesis Research Information System (CCRIS), 2018)
Calls of active or inactive are those of the source. No rule for the calls is given here.

Test system: CCRIS mutagenicity, Ames/micronucleus/aberration tests
Assay: CCRIS mutagenicity studies
[1] = Test System: AMES SALMONELLA TYPHIMURIUM, Strain/Indicator: TA98, Metabolic Activation: NONE, Method: PREINCUBATION
[2] = Test System: AMES SALMONELLA TYPHIMURIUM, Strain/Indicator: TA100, Metabolic Activation: NONE, Method: PREINCUBATION
[3] = Test System: AMES SALMONELLA TYPHIMURIUM, Strain/Indicator: TA1535, Metabolic Activation: NONE, Method: PREINCUBATION
[4] = Test System: AMES SALMONELLA TYPHIMURIUM, Strain/Indicator: TA1537, Metabolic Activation: NONE, Method: PREINCUBATION

## CCNc1ccccc1
Test System: AMES SALMONELLA TYPHIMURIUM, Strain/Indicator: TA97, Metabolic Activation: HAMSTER, LIVER, S-9, AROCLOR 1254 (10 OR 30%), Method: PREINCUBATION
  mutagenic call: inactive; negative
Test System: AMES SALMONELLA TYPHIMURIUM, Strain/Indicator: TA97, Metabolic Activation: NONE, Method: PREINCUBATION
  mutagenic call: inactive; negative
Test System: AMES SALMONELLA TYPHIMURIUM, Strain/Indicator: TA97, Metabolic Activation: RAT, LIVER, S-9, AROCLOR 1254 (10 OR 30%), Method: PREINCUBATION
  mutagenic call: inactive; negative
Test System: AMES SALMONELLA TYPHIMURIUM, Strain/Indicator: TA98, Metabolic Activation: HAMSTER, LIVER, S-9, AROCLOR 1254 (10 OR 30%), Method: PREINCUBATION
  mutagenic call: inactive; negative
[1]
  mutagenic call: inactive; negative
Test System: AMES SALMONELLA TYPHIMURIUM, Strain/Indicator: TA98, Metabolic Activation: RAT, LIVER, S-9, AROCLOR 1254 (10 OR 30%), Method: PREINCUBATION
  mutagenic call: inactive; negative
Test System: AMES SALMONELLA TYPHIMURIUM, Strain/Indicator: TA100, Metabolic Activation: HAMSTER, LIVER, S-9, AROCLOR 1254 (10 OR 30%), Method: PREINCUBATION
  mutagenic call: inactive; negative
[2]
  mutagenic call: inactive; negative
Test System: AMES SALMONELLA TYPHIMURIUM, Strain/Indicator: TA100, Metabolic Activation: RAT, LIVER, S-9, AROCLOR 1254 (10 OR 30%), Method: PREINCUBATION
  mutagenic call: inactive; negative
Test System: AMES SALMONELLA TYPHIMURIUM, Strain/Indicator: TA1535, Metabolic Activation: HAMSTER, LIVER, S-9, AROCLOR 1254 (10 OR 30%), Method: PREINCUBATION
  mutagenic call: inactive; negative
[3]
  mutagenic call: inactive; negative
Test System: AMES SALMONELLA TYPHIMURIUM, Strain/Indicator: TA1535, Metabolic Activation: RAT, LIVER, S-9, AROCLOR 1254 (10 OR 30%), Method: PREINCUBATION
  mutagenic call: inactive; negative

## Nc1ccc([N+](=O)[O-])cc1O
End Point: IN VITRO CHROMOSOMAL ABERRATIONS, Test System: CHO CELLS, Metabolic Activation: NONE
  mutagenic call: active; positive; precipitation occurred at 100.5 and 149.9 ug/ml
End Point: IN VITRO CHROMOSOMAL ABERRATIONS, Test System: CHO CELLS, Metabolic Activation: RAT, LIVER, S-9, AROCLOR 1254
  mutagenic call: active; positive; precipitation occurred at both doses
Test System: AMES SALMONELLA TYPHIMURIUM, Strain/Indicator: TA98, Metabolic Activation: HAMSTER, LIVER, S-9, AROCLOR 1254 (10%), Method: PREINCUBATION
  mutagenic call: active; positive
Test System: AMES SALMONELLA TYPHIMURIUM, Strain/Indicator: TA98, Metabolic Activation: HAMSTER, LIVER, S-9, AROCLOR 1254, Method: PREINCUBATION
  mutagenic call: active; positive
Test System: AMES SALMONELLA TYPHIMURIUM, Strain/Indicator: TA98, Metabolic Activation: NONE, Method: FLUCTUATION (MICROTITER)
  mutagenic call: active; positive
[1]
  mutagenic call: active; positive
Test System: AMES SALMONELLA TYPHIMURIUM, Strain/Indicator: TA98, Metabolic Activation: NONE, Method: STANDARD PLATE
  mutagenic call: active; positive
Test System: AMES SALMONELLA TYPHIMURIUM, Strain/Indicator: TA98, Metabolic Activation: RAT, LIVER, S-9, AROCLOR 1254 (10%), Method: PREINCUBATION
  mutagenic call: active; positive
Test System: AMES SALMONELLA TYPHIMURIUM, Strain/Indicator: TA98, Metabolic Activation: RAT, LIVER, S-9, AROCLOR 1254, Method: PREINCUBATION
  mutagenic call: active; positive
Test System: AMES SALMONELLA TYPHIMURIUM, Strain/Indicator: TA98, Metabolic Activation: RAT, LIVER, S-9, AROCLOR 1254, Method: STANDARD PLATE
  mutagenic call: inactive; negative
Test System: AMES SALMONELLA TYPHIMURIUM, Strain/Indicator: TA100, Metabolic Activation: HAMSTER, LIVER, S-9, AROCLOR 1254 (10%), Method: PREINCUBATION
  mutagenic call: inactive; negative
[2]
  mutagenic call: inactive; negative
Test System: AMES SALMONELLA TYPHIMURIUM, Strain/Indicator: TA100, Metabolic Activation: RAT, LIVER, S-9, AROCLOR 1254 (10%), Method: PREINCUBATION
  mutagenic call: inactive; negative
Test System: AMES SALMONELLA TYPHIMURIUM, Strain/Indicator: TA1535, Metabolic Activation: HAMSTER, LIVER, S-9, AROCLOR 1254 (10%), Method: PREINCUBATION
  mutagenic call: inactive; negative
Test System: AMES SALMONELLA TYPHIMURIUM, Strain/Indicator: TA1535, Metabolic Activation: HAMSTER, LIVER, S-9, AROCLOR 1254, Method: PREINCUBATION
  mutagenic call: inactive; negative
[3]
  mutagenic call: inactive; negative
Test System: AMES SALMONELLA TYPHIMURIUM, Strain/Indicator: TA1535, Metabolic Activation: RAT, LIVER, S-9, AROCLOR 1254 (10%), Method: PREINCUBATION
  mutagenic call: inactive; negative
Test System: AMES SALMONELLA TYPHIMURIUM, Strain/Indicator: TA1535, Metabolic Activation: RAT, LIVER, S-9, AROCLOR 1254, Method: PREINCUBATION
  mutagenic call: inactive; negative
Test System: AMES SALMONELLA TYPHIMURIUM, Strain/Indicator: TA1537, Metabolic Activation: HAMSTER, LIVER, S-9, AROCLOR 1254 (10%), Method: PREINCUBATION
  mutagenic call: active; positive
Test System: AMES SALMONELLA TYPHIMURIUM, Strain/Indicator: TA1537, Metabolic Activation: HAMSTER, LIVER, S-9, AROCLOR 1254, Method: PREINCUBATION
  mutagenic call: active; positive
Test System: AMES SALMONELLA TYPHIMURIUM, Strain/Indicator: TA1537, Metabolic Activation: NONE, Method: FLUCTUATION (MICROTITER)
  mutagenic call: inactive; negative
[4]
  mutagenic call: active; positive
Test System: AMES SALMONELLA TYPHIMURIUM, Strain/Indicator: TA1537, Metabolic Activation: RAT, LIVER, S-9, AROCLOR 1254 (10%), Method: PREINCUBATION
  mutagenic call: active; positive
Test System: AMES SALMONELLA TYPHIMURIUM, Strain/Indicator: TA1537, Metabolic Activation: RAT, LIVER, S-9, AROCLOR 1254, Method: PREINCUBATION
  mutagenic call: active; positive
Test System: AMES SALMONELLA TYPHIMURIUM, Strain/Indicator: TA7001, Metabolic Activation: NONE, Method: FLUCTUATION (MICROTITER)
  mutagenic call: inactive; negative
Test System: AMES SALMONELLA TYPHIMURIUM, Strain/Indicator: TA7002, Metabolic Activation: NONE, Method: FLUCTUATION (MICROTITER)
  mutagenic call: inactive; negative
Test System: AMES SALMONELLA TYPHIMURIUM, Strain/Indicator: TA7003, Metabolic Activation: NONE, Method: FLUCTUATION (MICROTITER)
  mutagenic call: inactive; negative
Test System: AMES SALMONELLA TYPHIMURIUM, Strain/Indicator: TA7004, Metabolic Activation: NONE, Method: FLUCTUATION (MICROTITER)
  mutagenic call: inactive; negative
Test System: AMES SALMONELLA TYPHIMURIUM, Strain/Indicator: TA7005, Metabolic Activation: NONE, Method: FLUCTUATION (MICROTITER)
  mutagenic call: inactive; negative
Test System: AMES SALMONELLA TYPHIMURIUM, Strain/Indicator: TA7006, Metabolic Activation: NONE, Method: FLUCTUATION (MICROTITER)
  mutagenic call: inactive; negative
Test System: MOUSE LYMPHOMA, Strain/Indicator: L5178Y (TK+/TK-), Metabolic Activation: NONE, Method: SUSPENSION/PLATE
  mutagenic call: active; positive

## CCNCCN
[1]
  mutagenic call: inactive; negative
Test System: AMES SALMONELLA TYPHIMURIUM, Strain/Indicator: TA98, Metabolic Activation: RAT LIVER S-9, PHENOBARBITAL AND BETA-NAPHTHOFLAVONE, Method: PREINCUBATION
  mutagenic call: inactive; negative
[2]
  mutagenic call: inactive; negative
Test System: AMES SALMONELLA TYPHIMURIUM, Strain/Indicator: TA100, Metabolic Activation: RAT LIVER S-9, PHENOBARBITAL AND BETA-NAPHTHOFLAVONE, Method: PREINCUBATION
  mutagenic call: inactive; negative
[3]
  mutagenic call: inactive; negative
Test System: AMES SALMONELLA TYPHIMURIUM, Strain/Indicator: TA1535, Metabolic Activation: RAT LIVER S-9, PHENOBARBITAL AND BETA-NAPHTHOFLAVONE, Method: PREINCUBATION
  mutagenic call: inactive; negative
[4]
  mutagenic call: inactive; negative
Test System: AMES SALMONELLA TYPHIMURIUM, Strain/Indicator: TA1537, Metabolic Activation: RAT LIVER S-9, PHENOBARBITAL AND BETA-NAPHTHOFLAVONE, Method: PREINCUBATION
  mutagenic call: inactive; negative
Test System: AMES SALMONELLA TYPHIMURIUM, Strain/Indicator: TA1538, Metabolic Activation: NONE, Method: PREINCUBATION
  mutagenic call: inactive; negative
Test System: AMES SALMONELLA TYPHIMURIUM, Strain/Indicator: TA1538, Metabolic Activation: RAT LIVER S-9, PHENOBARBITAL AND BETA-NAPHTHOFLAVONE, Method: PREINCUBATION
  mutagenic call: inactive; negative
Test System: E.COLI, Strain/Indicator: WP2UVRA, Metabolic Activation: NONE, Method: PREINCUBATION
  mutagenic call: inactive; negative
Test System: E.COLI, Strain/Indicator: WP2UVRA, Metabolic Activation: RAT LIVER S-9, PHENOBARBITAL AND BETA-NAPHTHOFLAVONE, Method: PREINCUBATION
  mutagenic call: inactive; negative

## O=C1C=CC(=O)C1(Cl)Cl
Test System: AMES SALMONELLA TYPHIMURIUM, Strain/Indicator: TA100, Metabolic Activation: NONE, Method: STANDARD PLATE
  mutagenic call: active; positive
